How the values were obtained:
Recombinant human renin = biological target: T1, Recombinant human renin (Homo sapiens, UniProt P00797); assay: in vitro enzymatic activity of renin inhibitors (fluorescence); format: biochemical; details: fluorogenic peptide substrate
T1 construct: with trypsin, and isolate the active form (residues 67-406); made in house; host or cells: FreeStyle 293-F cells (transient expression of pcDNA3.1(+)/hREN)
T1 sequence (P00797 67-406): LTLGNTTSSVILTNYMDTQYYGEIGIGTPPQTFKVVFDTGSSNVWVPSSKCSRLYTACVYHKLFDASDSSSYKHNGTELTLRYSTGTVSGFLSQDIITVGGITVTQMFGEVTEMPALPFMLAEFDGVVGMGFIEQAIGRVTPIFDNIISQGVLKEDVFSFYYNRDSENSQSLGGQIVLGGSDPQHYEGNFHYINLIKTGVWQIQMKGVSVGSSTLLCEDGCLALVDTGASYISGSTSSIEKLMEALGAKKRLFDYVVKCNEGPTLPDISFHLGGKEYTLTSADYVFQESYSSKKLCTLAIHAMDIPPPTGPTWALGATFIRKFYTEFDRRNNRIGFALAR
Excerpt: Test compounds in varying concentrations may be reacted with recombinant human renin in the presence of substrate, e.g., QXL520-γ-Abu-Ile-His-Pro-Phe-His-Leu-Val-Ile-His-Thr-Lys (HiLyteFluo488)-Arg-OH (Anaspec, San Jose, Calif.). The reaction can be followed kinetically using fluorescence (excitation λ=485 nm; emission λ=538 nm). Inhibition constants (IC50) may be calculated by non-linear curve fitting of the compound concentrations and fluorescence intensities to the standard IC50 equation.
Solutions of test compounds in varying concentrations (≦2 mM final concentration) are prepared in dimethyl sulfoxide (DMSO) and then diluted into assay buffer comprising 50 mM Hepes, 1 mM EDTA, 1 mM DTT, 0.1 mg/ml BSA, 0.01% Brij35, pH 7.4. Alternatively, the assay can be performed with a high BSA concentration, wherein the buffer contains an additional 2% BSA.
Recombinant human renin (3 nM final concentration) is added to the dilutions and pre-incubated with the compounds for 10 minutes at 37° C. As described in Examples A-C above, human renin can be obtained by expressing preprorenin (residue 1-406) in mammalian cells, treating the prorenin (residues 24-406) contained in the culture supernatant with trypsin, and isolate the active form (residues 67-406). After pre-incubation, the reaction is initiated with 1 μM of substrate QXL520-γ-Abu-Ile-His-Pro-Phe-His-Leu-Val-Ile-His-Thr-Lys (HiLyteFluo488)-Arg-OH (Anaspec, San Jose, Calif.). The final DMSO in the assay is 5%. The total volume of the reaction mixture is 20 μL, which can be placed on Greiner 384-well small volume plates.
Renin activity may be determined via fluorescence (excitation λ=485 nm; emission λ=538 nm), e.g., on a Molecular Devices SPECTROmax GEMINI XPS. The fluorescence intensity is determined upon the addition of substrate and determined again after incubation at 37° C. for one hour. The fluorescence intensity of a blank (no inhibition) using vehicle alone is also determined. Renin activity is linearly proportional to the change in fluorescence observed (final—initial).
The percent inhibition of renin at a given compound concentration is defined as: 100%×[1−(Fcompound/Fblank)] where Fcompound is the observed fluorescence at a given concentration of test compound and Fblank is the observed fluorescence in the presence of vehicle alone.
The pIC50 value (negative log of the molar concentration of the compound that produces 50% inhibition) of a test compound is calculated by non-linear least squares curve fitting of the equation: Percent Inhibition=100%/(1+(10−pIC50/10 log [I])) to percent inhibition versus compound concentration. The 50% inhibitory concentration (IC50) of a test compound is calculated by raising 10 to the negative pIC50 (10-pIC50).

Human DPP-IV = Human DPP-IV (Homo sapiens, UniProt P27487); assay: in vitro enzymatic activity of inhibitors against DPP-IV; format: biochemical; details: AP-AFC substrate
Method: Solutions of test compounds in varying concentrations ([…]) were prepared in dimethyl sulfoxide (DMSO) and then diluted into assay buffer comprising: 20 mM Tris, pH 7.4; 20 mM KCl; and 0.1 mg/mL BSA. Human DPP-IV (0.1 nM final concentration) was added to the dilutions and pre-incubated for 10 minutes at ambient temperature before the reaction was initiated with A-P-7-amido-4-trifluoromethylcoumarin (AP-AFC; 10 μM final concentration). The total volume of the reaction mixture was 10-100 μL depending on assay formats used (384 or 96 well plates). The reaction was followed kinetically (excitation λ=400 nm; emission λ=505 nm) for 5-10 minutes or an end-point was measured after 10 minutes. Inhibition constants (IC50) were calculated from the enzyme progress curves using standard mathematical models.

Chain of Human DPP-IV (P27487 whole entry): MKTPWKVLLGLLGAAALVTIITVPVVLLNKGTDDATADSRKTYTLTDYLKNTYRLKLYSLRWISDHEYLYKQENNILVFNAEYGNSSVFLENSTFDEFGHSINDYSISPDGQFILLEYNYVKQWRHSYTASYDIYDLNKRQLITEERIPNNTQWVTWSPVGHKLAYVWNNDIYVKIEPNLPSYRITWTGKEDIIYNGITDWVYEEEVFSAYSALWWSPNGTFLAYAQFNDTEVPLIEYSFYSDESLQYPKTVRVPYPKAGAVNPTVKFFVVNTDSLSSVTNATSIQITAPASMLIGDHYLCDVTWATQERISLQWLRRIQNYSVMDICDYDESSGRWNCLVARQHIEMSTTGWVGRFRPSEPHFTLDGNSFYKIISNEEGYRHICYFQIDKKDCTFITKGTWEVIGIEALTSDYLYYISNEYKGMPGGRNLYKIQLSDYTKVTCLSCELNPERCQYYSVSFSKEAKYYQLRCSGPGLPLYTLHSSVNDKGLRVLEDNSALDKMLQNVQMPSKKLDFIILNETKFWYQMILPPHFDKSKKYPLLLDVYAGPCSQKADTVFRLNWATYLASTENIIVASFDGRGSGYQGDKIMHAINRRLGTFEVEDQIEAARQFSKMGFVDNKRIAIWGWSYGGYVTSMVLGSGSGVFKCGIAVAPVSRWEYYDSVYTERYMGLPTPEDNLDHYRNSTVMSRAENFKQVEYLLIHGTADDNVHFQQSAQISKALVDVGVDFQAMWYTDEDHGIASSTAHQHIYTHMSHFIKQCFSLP

| SMILES | IC50 (Recombinant human renin) [µM] | IC50 (Human DPP-IV) [µM] |
| --- | --- | --- |
| CC(C)COc1ccccc1-c1c(CN)c(NCc2ccc3ccccc3c2)nc2c1c(=O)n(C)c(=O)n2C [Compound 77, 6-(aminomethyl)-5-(2-isobutoxyphenyl)-1,3-dimethyl-7-(naphthalen-2-ylmethylamino)pyrido[2,3-d]pyrimidine-2,4(1H,3H)-dione] | 1 to 10 | > 100 |
| COc1ccc(F)cc1-c1c(CN)c(NCc2cccc(OCC(C)C)c2)nc2c1c(=O)n(C)c(=O)n2C [Compound 83, 6-(aminomethyl)-5-(5-fluoro-2-methoxyphenyl)-7-(3-isobutoxybenzylamino)-1,3-dimethylpyrido[2,3-d]pyrimidine-2,4(1H,3H)-dione] | 1 to 10 | < 1 |
| CCCOc1ccc(OCCC)c(CNc2nc3c(c(-c4ccc(Cl)cc4Cl)c2CN)c(=O)n(C)c(=O)n3C)c1 [Compound 84, 6-(aminomethyl)-5-(2,4-dichlorophenyl)-7-(2,5-dipropoxybenzylamino)-1,3-dimethylpyrido[2,3-d]pyrimidine-2,4(1H,3H)-dione] | > 100 | 1 to 10 |
| COc1ccc(F)cc1-c1c(CN)c(NCc2ccccc2C(F)(F)F)nc2c1c(=O)n(C)c(=O)n2C [Compound 87, 6-(Aminomethyl)-5-(5-fluoro-2-methoxyphenyl)-1,3-dimethyl-7-(2-(trifluoromethyl)benzylamino)pyrido[2,3-d]pyrimidine-2,4(1H,3H)-dione] | 1 to 10 | < 1 |
| CC(C)COc1ccc(Cl)cc1-c1c(CN)c(NCc2ccc3ccccc3c2)nc2c1c(=O)n(C)c(=O)n2C [Compound 88, 6-(Aminomethyl)-5-(5-chloro-2-isobutoxyphenyl)-1,3-dimethyl-7-(naphthalen-2-ylmethylamino)pyrido[2,3-d]pyrimidine-2,4(1H,3H)-dione] | 1 to 10 | 1 to 10 |
| Cn1c(=O)c2c(-c3cc(F)ccc3Br)c(CN)c(NC(Cc3ccccc3)c3ccccc3)nc2n(C)c1=O (stereo not shown) [Compound 91, 6-(Aminomethyl)-5-(2-bromo-5-fluorophenyl)-7-(1,2-diphenylethylamino)-1,3-dimethylpyrido[2,3-d]pyrimidine-2,4(1H,3H)-dione] | 1 to 10 | < 1 |

Results, then the compound that gave them:

| IC50 (Recombinant human renin) [µM] | IC50 (Human DPP-IV) [µM] | SMILES |
| --- | --- | --- |
| 1 to 10 | 10 to 100 | Cn1c(=O)c2c(-c3cccc(OCc4cncs4)c3)c(CN)c(NCc3ccc4ccccc4c3)nc2n(C)c1=O [Compound 79, 6-(aminomethyl)-1,3-dimethyl-7-(naphthalen-2-ylmethylamino)-5-(3-(thiazol-5-ylmethoxy)phenyl)pyrido[2,3-d]pyrimidine-2,4(1H,3H)-dione] |
| 1 to 10 | 10 to 100 | Cn1c(=O)c2c(-c3cccc(O)c3)c(CN)c(NCc3ccc4ccccc4c3)nc2n(C)c1=O [Compound 80, 6-(aminomethyl)-5-(3-hydroxyphenyl)-1,3-dimethyl-7-(naphthalen-2-ylmethylamino)pyrido[2,3-d]pyrimidine-2,4(1H,3H)-dione] |
| 1 to 10 | < 1 | COc1ccc(F)cc1-c1c(CN)c(NCc2cccc(OCc3ccccc3)c2)nc2c1c(=O)n(C)c(=O)n2C [Compound 82, 6-(aminomethyl)-7-(3-(benzyloxy)benzylamino)-5-(5-fluoro-2-methoxyphenyl)-1,3-dimethylpyrido[2,3-d]pyrimidine-2,4(1H,3H)-dione] |
| 1 to 10 | > 100 | COc1cc(OC)cc(-c2c(CN)c(NCc3cccc(-n4cccc4)c3)nc3c2c(=O)n(C)c(=O)n3C)c1 [Compound 85, 7-(3-(1H-pyrrol-1-yl)benzylamino)-6-(aminomethyl)-5-(3,5-dimethoxyphenyl)-1,3-dimethylpyrido[2,3-d]pyrimidine-2,4(1H,3H)-dione] |
| 10 to 100 | > 100 | CCNCc1c(NCc2ccc3ccccc3c2)nc2c(c1-c1cc(OC)cc(OC)c1)c(=O)n(C)c(=O)n2C [Compound 86, 5-(3,5-dimethoxyphenyl)-6-((ethylamino)methyl)-1,3-dimethyl-7-(naphthalen-2-ylmethylamino)pyrido[2,3-d]pyrimidine-2,4(1H,3H)-dione] |
| 1 to 10 | 10 to 100 | Cn1c(=O)c2c(-c3cccc(OCc4cnc(Cl)s4)c3)c(CN)c(NCc3ccc4ccccc4c3)nc2n(C)c1=O [Compound 89, 6-(Aminomethyl)-5-(3-((2-chlorothiazol-5-yl)methoxy)phenyl)-1,3-dimethyl-7-(naphthalen-2-ylmethylamino)pyrido[2,3-d]pyrimidine-2,4(1H,3H)-dione] |
| 1 to 10 | 1 to 10 | Cn1c(=O)c2c(-c3cccc(F)c3)c(CN)c(NCc3ccc4ccccc4c3)nc2n(C)c1=O [Compound 90, 6-(Aminomethyl)-5-(3-fluorophenyl)-1,3-dimethyl-7-(naphthalen-2-ylmethylamino)pyrido[2,3-d]pyrimidine-2,4(1H,3H)-dione] |
| 10 to 100 | < 1 | COc1ccc(F)cc1-c1c(CN)c(NCCc2ccccc2)nc2c1c(=O)n(C)c(=O)n2C [Compound 93, 6-(Aminomethyl)-5-(5-fluoro-2-methoxyphenyl)-1,3-dimethyl-7-(phenethylamino)pyrido[2,3-d]pyrimidine-2,4(1H,3H)-dione] |

— patent publication US8133898B2, “Renin inhibitors” (Takeda Pharmaceutical Company Limited, priority 2008, dated 2012)
